Assay [1] deals with U87 cells (human glioblastoma, αVβ3+). As to the kind of experiment: cells. The following applies: for IC50: 96 hours treatment, triplicate, read-out: IC50 U87 (αVβ3+), inhibition of cell viability. It counts as cell-based. The protocol: (§1) The cell lines were treated with different concentrations of the free drug α-amanitin and conjugates 7–11 for 96 hours. […]
(§2) described recently.[S1] The SNP profiles matched known profiles or were unique. The purity of the cell lines was validated using the Multiplex cell Contamination Test by Multiplexion (Heidelberg, Germany) as described recently.[S2] No mycoplasma, SMRV or interspecies contamination was detected. U87-MG, MDA-MB 468 and A549 cells were cultivated continuously for not more than 3 months in MEM Eagle´s, DMEM or Ham´s F12 medium, respectively, supplemented with 10% heat inactivated fetus calf serum, L-glutamine and antibiotics. Cell lines were maintained at 37 °C and 5% CO2 in a high humidity atmosphere.
(§3) Cell therapy and viability assay
(§4) Cell viability assays were performed in U87-MG, A549 and MDA-MB 468 cell lines according to the following procedure: 2 × 10^3 cells/well were plated in 96-well black clear bottom plates (Perkin Elmer) and incubated overnight. 1:5 serial dilutions of compounds 7–11 were prepared in cell culture media. The compounds were added to the cell culture and incubated for additional 96 h. Starting concentration of compounds 7–11 in the wells was 1 × 10−5 M and cell viability was determined with the CellTiterGlo 2.0 assay (Promega) in accordance to manufacturer’s instructions. The cell viability was calculated in relation to the non-treated controls for each cell line. All samples were measured in triplicate. Data analysis was carried out using software GraphPad Prism (GraphPad Software Inc., La Jolla, CA, USA).
Competition experiment of compounds 10 and 11
The competition experiment s were performed in U87-MG and MDA-MB 468 cell lines according to the following procedure: 2 × 10^3 cells/well were plated in 96-well black clear bottom plates (Perkin Elmer) and incubated overnight. A solution containing 1 × 10−4 M of the conjugates 10 or 11 and 5 × 10−3 M of cilengitide (50-fold excess of ligand in comparison to the conjugate) was prepared in the growth medium and 1:5 serial dilutions were prepared in cell culture media. The compounds were added to cell culture and incubated for 96 h. The starting concentration of the compounds in the wells was 0.01 mM whereas that of cilengitide was 0.5 mM. The cell viability was determined with the CellTiterGlo 2.0 assay (Promega) in accordance to manufacturer’s instructions and the viability was calculated in relation to the non-treated controls for each cell line. All samples were measured in triplicate. Data analysis was carried out using software GraphPad Prism (GraphPad Software Inc., La Jolla, CA, USA).
(§5) [S1] F. Castro, W. G. Dirks, S. Fähnrich, A. Hotz-Wagenblatt, M. Pawlita, M. Schmitt, Int. J. Cancer […]
(§6) [S2] M. Schmitt, M. Pawlita, Nucleic Acids Res. 2009, 37, e119.

For assay [2], the system named is A549 cells (human lung carcinoma, αVβ3−). As to the kind of experiment: cells. It counts as cell-based. The protocol:
as §1, §2, §3
as §4, with “USA). […]” for “USA).”

In assay [3] the test system is αVβ3 positive and αVβ3 negative cell line. Details: method as in PMID 28449309. The settings on record: αVβ3 positive vs αVβ3 negative cell line; cited from earlier work.
Assay [4] has as its system MDA-MB-468 cells (breast adenocarcinoma, αVβ3−). As to the kind of experiment: cells. The settings on record: 96 hours treatment, triplicate, read-out: IC50 MDA-MB-468 (αVβ3−), inhibition of cell viability. It counts as cell-based. How it is done: as §1, §2, §3
as §4, with “USA). […]” for “USA).”
as §5, §6

Assay [5] deals with T1, Recombinant human integrin αVβ3 (Homo sapiens, UniProt P05106+P06756).
T1 construct: purchased R&D Systems, Minneapolis, MN, USA
As to the kind of experiment: Inhibition of biotinylated vitronectin binding to purified αVβ3 receptor (solid phase receptor binding assay). The settings on record: conjugates, Table 2; mean ± SD of triplicate determinations. The protocol: Conjugates 7–11 were evaluated for their ability to inhibit biotinylated vitronectin binding to the purified αVβ3 receptor. Screening assays were performed by incubating the immobilized integrin receptor with solutions of the cyclo[DKP-RGD]-α-amanitin and cyclo[DKP-isoDGR]-α-amanitin conjugates 7–11 at different concentrations (10^−12 to 10^−5 M) in the presence of biotinylated vitronectin (1 µg mL^−1) and measuring bound vitronectin. […]
to assist the dissolution). The solution obtained was filtered (polypropylene, 0.45 μm, 13 mm ø, PK/100) and injected in the HPLC, affording purified products. Purity analyses were carried on a Dionex Ultimate 3000 instrument equipped with a Dionex RS Variable Wavelenght detector (column: Atlantis® Prep T3 OBDTM 5 μm 19 × 100 mm). The analyte (1 mg) was dissolved in 1 mL of H2O and was injected using the same gradient used in the purification step. The analysis of the integrals and the relative percentage of purity were performed with the software Chromeleon 6.80 SR11 Build 3161. Also, preparative HPLC LaPrep∑ equipped with autosampler AS3950 and a Phenomenex Luna C-18(2) column, 10 µm, 250 × 21.2 mm, with precolumn at 30 mL/min flow rate and analytical HPLC performed on Hitachi Chromaster (column oven Chromaster 5310, pump Chromaster 5110, autosampler Chromaster 5210, DAD Chromaster 5430) equipped with a Phenomenex Luna C-18(2) column, 10 µm, 250 × 4.6 mm, with precolumn at 1.4 mL/min flow rate were used. Freeze-drying: The product was dissolved in water and frozen with dry ice. The freeze-drying was carried out at least for 48 h at −50 °C using the instrument 5Pascal Lio5P DGT.
Solid phase receptor binding assays
Recombinant human integrin αVβ3 (R&D Systems, Minneapolis, MN, USA) was diluted to 0.5 µg/mL in coating buffer containing 20 mM Tris-HCl (pH 7.4), 150 mM NaCl, 1 mM MnCl2, 2 mM CaCl2, and 1 mM MgCl2. […] Absorbance at 415 nm was read in a SynergyTM HT Multi-Detection Microplate Reader (BioTek Instruments, Inc.). […]

Assay [6] deals with α5β1. Details: method as in PMID 28074920. The following applies: read-out: IC50 α5β1 binding; cited from earlier work.
For assay [7], the system named is αVβ5. Details: method as in PMID 28074920. The following applies: read-out: IC50 αVβ5 binding; cited from earlier work.
Assay [8] deals with αVβ3. Details: method as in PMID 28074920. The settings on record: read-out: IC50 αVβ3 binding; cited from earlier work.
Assay [9] relates to αVβ5 receptor. As to the kind of experiment: Inhibition of biotinylated vitronectin binding to αVβ5 receptor. The settings on record: ratio of IC50 values of Table 1.
Assay [10] concerns the target αVβ5 receptor. Details: method as in PMID 22517378, PMID 23424096. The settings on record: free ligands, Table 1; mean ± SD of triplicate determinations; read-out: IC50 αVβ5, inhibition of biotinylated vitronectin binding; cited from earlier work.

Read-outs that look alike come from different tables or passages of the source.

T1 sequence (P06756 31-992 limits assumed): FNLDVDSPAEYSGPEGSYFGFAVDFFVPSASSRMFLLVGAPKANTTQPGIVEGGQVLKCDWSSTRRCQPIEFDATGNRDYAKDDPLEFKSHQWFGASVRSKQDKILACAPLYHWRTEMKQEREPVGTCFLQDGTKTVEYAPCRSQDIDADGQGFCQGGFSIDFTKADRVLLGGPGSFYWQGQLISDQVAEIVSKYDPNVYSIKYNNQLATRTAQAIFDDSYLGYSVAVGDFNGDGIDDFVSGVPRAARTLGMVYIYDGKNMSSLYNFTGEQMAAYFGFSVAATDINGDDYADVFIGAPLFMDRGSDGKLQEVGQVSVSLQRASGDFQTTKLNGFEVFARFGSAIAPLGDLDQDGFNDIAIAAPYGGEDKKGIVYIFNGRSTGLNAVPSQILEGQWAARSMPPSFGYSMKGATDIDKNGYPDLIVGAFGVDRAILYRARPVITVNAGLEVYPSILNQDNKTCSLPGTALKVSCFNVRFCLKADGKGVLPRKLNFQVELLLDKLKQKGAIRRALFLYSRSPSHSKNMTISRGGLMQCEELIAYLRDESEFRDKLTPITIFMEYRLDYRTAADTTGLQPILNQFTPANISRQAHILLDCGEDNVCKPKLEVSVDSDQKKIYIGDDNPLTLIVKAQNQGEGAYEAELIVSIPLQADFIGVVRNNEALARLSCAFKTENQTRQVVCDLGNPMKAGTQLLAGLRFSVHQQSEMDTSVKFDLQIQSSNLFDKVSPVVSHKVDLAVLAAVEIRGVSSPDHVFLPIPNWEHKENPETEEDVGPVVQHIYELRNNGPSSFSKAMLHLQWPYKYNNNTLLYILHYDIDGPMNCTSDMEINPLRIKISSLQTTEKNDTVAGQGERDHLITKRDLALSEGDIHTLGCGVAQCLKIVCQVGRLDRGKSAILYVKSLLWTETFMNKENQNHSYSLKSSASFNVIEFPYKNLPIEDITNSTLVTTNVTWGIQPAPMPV
T1 sequence (P05106 27-718 limits assumed): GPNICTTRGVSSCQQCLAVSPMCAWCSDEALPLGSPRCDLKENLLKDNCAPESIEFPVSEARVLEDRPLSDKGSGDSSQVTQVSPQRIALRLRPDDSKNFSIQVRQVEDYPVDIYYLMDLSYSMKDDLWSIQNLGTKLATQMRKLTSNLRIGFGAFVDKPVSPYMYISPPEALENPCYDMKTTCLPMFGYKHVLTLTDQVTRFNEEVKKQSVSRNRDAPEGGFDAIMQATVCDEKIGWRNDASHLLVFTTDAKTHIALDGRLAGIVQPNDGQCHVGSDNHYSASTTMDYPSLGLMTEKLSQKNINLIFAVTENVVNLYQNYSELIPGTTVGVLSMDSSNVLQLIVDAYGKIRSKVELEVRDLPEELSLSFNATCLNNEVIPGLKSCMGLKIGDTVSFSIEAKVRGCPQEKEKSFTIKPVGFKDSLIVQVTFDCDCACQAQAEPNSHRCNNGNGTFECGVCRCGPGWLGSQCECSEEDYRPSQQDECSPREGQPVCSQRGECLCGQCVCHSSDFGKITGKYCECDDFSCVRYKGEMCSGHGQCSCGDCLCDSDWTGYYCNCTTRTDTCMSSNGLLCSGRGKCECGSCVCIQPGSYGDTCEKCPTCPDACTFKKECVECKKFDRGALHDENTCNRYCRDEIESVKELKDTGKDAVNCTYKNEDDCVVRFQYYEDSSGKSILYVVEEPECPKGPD

On to `CC[C@H](C)[C@@H]1NC(=O)CNC(=O)[C@@H]2Cc3c([nH]c4cc(OCc5ccc(NC(=O)[C@H](C)NC(=O)[C@@H](NC(=O)CCc6cn(CCOCCOCCOCCOCC(=O)NCc7ccc(CN8C(=O)[C@H]9CC(=O)N[C@H](C(=O)O)CC(=O)NCC(=O)N[C@@H](CCCNC(=N)N)C(=O)NC[C@H]8C(=O)N9)cc7)nn6)C(C)C)cc5)ccc34)[S+]([O-])C[C@H](NC(=O)CNC1=O)C(=O)N[C@@H](CC(N)=O)C(=O)N1C[C@H](O)C[C@H]1C(=O)N[C@@H]([C@@H](C)[C@@H](O)CO)C(=O)N2` (stereo partly drawn) [Compound 11, cyclo[DKP-isoDGR]-PEG-4-Val-Ala-α-amanitin], for which the “more potent than α-amanitin” value in assay [1] (in U87 and MDA-MB-468 cell lines, Table 3 entry 1 vs entry 6) was 2.1–2.8 times. Moreover, in assay [2] (A549 cell line), the “less potent than the free drug (α-amanitin)” value turned out to be 1.4 times.
`CC(=O)O[C@H]1C(=O)[C@@]2(C)[C@H]([C@H](OC(=O)c3ccccc3)[C@]3(O)C[C@H](OC(=O)[C@H](OC(=O)N(C)CCN(C)C(=O)OCc4ccc(NC(=O)[C@H](C)NC(=O)[C@@H](NC(=O)CCCC(=O)NCc5ccc(CN6C(=O)[C@H]7CC(=O)N[C@H](C(=O)O)CC(=O)NCC(=O)N[C@@H](CCCNC(=N)N)C(=O)NC[C@H]6C(=O)N7)cc5)C(C)C)cc4)[C@@H](NC(=O)c4ccccc4)c4ccccc4)C(C)=C1C3(C)C)[C@]1(OC(C)=O)CO[C@@H]1C[C@@H]2O` [Conjugate 6, cyclo[DKP-isoDGR]-Val-Ala-PTX]: the “targeting index (TI)” value in [3] was 9.9.
Regarding `CC[C@H](C)[C@@H]1NC(=O)CNC(=O)[C@@H]2Cc3c([nH]c4cc(OCCCCCCNC(=O)CCCC(=O)NCc5ccc(CN6C(=O)[C@H]7CC(=O)N[C@@H](CCCNC(=N)N)C(=O)NCC(=O)N[C@@H](CC(=O)O)C(=O)NC[C@H]6C(=O)N7)cc5)ccc34)[S+]([O-])C[C@H](NC(=O)CNC1=O)C(=O)N[C@@H](CC(N)=O)C(=O)N1C[C@H](O)C[C@H]1C(=O)N[C@@H]([C@@H](C)[C@@H](O)CO)C(=O)N2` (stereo partly drawn) [Compound 7, cyclo[DKP-RGD]-uncleavable-α-amanitin], the IC50 – broadly, the concentration needed to halve the response being measured – was 1110 ± 228 nM in [4], 2550 ± 37.6 nM in [1] and 11.6 ± 2.4 nM in [5].
On the same counts, the results for `CC[C@H](C)[C@@H]1NC(=O)CNC(=O)[C@@H]2Cc3c([nH]c4cc(OCCCCCCNC(=O)CCCC(=O)NCc5ccc(CN6C(=O)[C@H]7CC(=O)N[C@H](C(=O)O)CC(=O)NCC(=O)N[C@@H](CCCNC(=N)N)C(=O)NC[C@H]6C(=O)N7)cc5)ccc34)[S+]([O-])C[C@H](NC(=O)CNC1=O)C(=O)N[C@@H](CC(N)=O)C(=O)N1C[C@H](O)C[C@H]1C(=O)N[C@@H]([C@@H](C)[C@@H](O)CO)C(=O)N2` (stereo partly drawn) [Compound 8, cyclo[DKP-isoDGR]-uncleavable-α-amanitin] are 2200 ± 96.2 nM, 3355 ± 19.1 nM and 6.8 ± 4.3 nM.
For the compound cilengitide, the figures for the IC50 in assay [6], in [7] and in assay [8] were 14.9 nM, 8.4 nM and 0.6 nM, respectively.
With `CC[C@H](C)[C@@H]1NC(=O)CNC(=O)[C@@H]2Cc3c([nH]c4cc(O)ccc34)[S@+]([O-])C[C@H](NC(=O)CNC1=O)C(=O)N[C@@H](CC(N)=O)C(=O)N1C[C@H](O)C[C@H]1C(=O)N[C@@H]([C@@H](C)[C@@H](O)CO)C(=O)N2` [α-amanitin], the IC50 was found to be 185 ± 49.6 nM in [4] (Homo sapiens, MDA-MB-468); 347 ± 132 nM in assay [1] (Homo sapiens, U-87 MG); 518 ± 305 nM in [2] (Homo sapiens, A549, 96 hours treatment, triplicate, read-out: IC50 A549 (αVβ3−), inhibition of cell viability).
On to `CC(=O)O[C@H]1C(=O)[C@@]2(C)[C@H]([C@H](OC(=O)c3ccccc3)[C@]3(O)C[C@H](OC(=O)[C@H](OC(=O)N(C)CCN(C)C(=O)OCc4ccc(NC(=O)[C@H](C)NC(=O)[C@@H](NC(=O)CCCC(=O)NCc5ccc(CN6C(=O)[C@H]7CC(=O)N[C@@H](CCCNC(=N)N)C(=O)NCC(=O)N[C@@H](CC(=O)O)C(=O)NC[C@H]6C(=O)N7)cc5)C(C)C)cc4)[C@@H](NC(=O)c4ccccc4)c4ccccc4)C(C)=C1C3(C)C)[C@]1(OC(C)=O)CO[C@@H]1C[C@@H]2O` [Conjugate 5, cyclo[DKP-RGD]-Val-Ala-PTX], for which the “targeting index (TI)” value in [3] is on record as 2.4.
In the case of `N=C(N)NCCC[C@@H]1NC(=O)C[C@H]2NC(=O)[C@H](CNC(=O)[C@H](CC(=O)O)NC(=O)CNC1=O)N(Cc1ccccc1)C2=O` [Ligand 1, cyclo[DKP-RGD]], the “selectivity for αVβ3 in comparison with integrin αVβ5” value in [9] is listed as 33–34 times. Also, the IC50 in assay [10] is 149 ± 25 nM.
